Test results taken from article PMC5522078, “Discovery and characterization of small molecules targeting the DNA-binding ETS domain of ERG in prostate cancer” (Oncotarget, 2017).
pIC50: −log10 of the molar value. Like-named read-outs stand apart in the source and are kept apart here.

Key:
PNT1B-ERG or VCaP cells = assay: Zebrafish yolk sac dissemination (xenograft metastasis) assay; type: in vivo; details: 1 and 10 μM in water; 5 days; untreated 65 to 70%
Protocol: Research was carried in accordance with protocols compliant to the Canadian Council on Animal Care and with the approval of the Animal Care Committee at the University of British Columbia. The wildtype zebrafish strain was maintained in aquaria according to standard protocols. Embryos were generated by natural pair-wise matings and raised at 28.5°C on a 14 h light/10 h dark cycle in a 100 mm^2 petri dish containing aquarium water. Phenylthiourea (0.2 mM PTU, Sigma) was added to the embryos at 10 h post-fertilization (hpf) to prevent pigment formation. Yolk sac dissemination assay. PCa cell lines were fluorescently labelled the day before microinjection with 1.5 μM of CellTracker CM-Dil dye (Life Technologies) as per manufacturer's instructions. Wild-type embryos were dechorionated at 2 dpf. Following anaesthetization with tricane, approximately 50–70 cancer cells were microinjected into the yolk sac. Embryos were then transferred to 100 mm^2 plates that contained aquaria water with added PTU and VPC-18005, YK-4-279 or DMSO control. Embryos were visually assessed for presence of xenograph. […] Embryos were kept at 35°C for the duration of the experiment. Approximately, 50 fish were injected per cell line and metastasis was determined on Day 4 and 5 by observation using the Zeiss Axio Observer microscope (5X objective) controlled with Zen 2012 software. […]

ERG = target: T1, ERG (Homo sapiens, UniProt P11308); assay: Dual reporter luciferase assay (pETS-luc) in PNT1B-ERG cells; type: cell-based; details: 0.1-100 μM, 48 h treatment
T1 construct: expressed in transfected cells; host or cells: PNT1B-ERG (immortalized prostatic epithelial PNT1B cells stably overexpressing ERG)
T1 sequence (P11308 1-479): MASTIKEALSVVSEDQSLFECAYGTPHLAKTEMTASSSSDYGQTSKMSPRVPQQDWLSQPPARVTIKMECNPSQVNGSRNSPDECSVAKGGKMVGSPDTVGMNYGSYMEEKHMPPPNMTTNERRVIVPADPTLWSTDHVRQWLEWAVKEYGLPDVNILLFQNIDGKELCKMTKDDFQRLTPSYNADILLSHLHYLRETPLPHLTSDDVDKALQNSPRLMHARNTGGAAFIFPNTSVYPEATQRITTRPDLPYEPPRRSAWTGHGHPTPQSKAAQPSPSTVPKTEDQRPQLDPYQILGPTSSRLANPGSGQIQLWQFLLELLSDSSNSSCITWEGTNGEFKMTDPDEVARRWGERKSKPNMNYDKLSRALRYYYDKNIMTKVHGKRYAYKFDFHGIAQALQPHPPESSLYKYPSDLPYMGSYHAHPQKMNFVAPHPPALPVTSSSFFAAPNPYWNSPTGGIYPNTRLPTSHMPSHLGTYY
Protocol: All of the compounds selected from the virtual screening were tested in a luciferase-based ERG-responsive reporter assay, using two ERG-overexpressing cell lines, VCaP and PNT1B-ERG, previously developed in house. […] Data were normalized first to Renilla luciferase and then to the DMSO-media control on each plate, unless otherwise stated. Initial hit compounds were identified as those with an average normalized luciferase reading (firefly luciferase/Renilla luciferase readings) that is 60% or less of the average normalized luciferase reading of the DMSO-media control (i.e. 40% or more reduction of luciferase activity) at 10 μM. Representative example of raw Renilla luciferase readings presented in Supplementary Figure 9B. The luciferase assays were repeated for each lead compound under multiple concentrations (0.1 to 100 μM) to establish a dose-dependent response and an IC50 value. AR reporter assay was performed as previously described.

PC3 cells = assay: MTS cell viability assay, PC3; type: cell-based, human; details: 72 h
Protocol: 3-(4,5-dimethylthiazol-2-yl)-5-(3-carboxymethoxyp henyl)-2-(4-sulfophenyl)-2H-tetrazolium, inner salt (MTS). Cells were seeded at a density of 3000 cells per well (except VCaP at 20,000/well) in 100 μL of appropriate media in 96 well culture dishes. Twenty four hours later, 100 μL of medium containing vehicle control or compounds. Each treatment was prepared in triplicate. After a 72 h treatment, cellular viability was assessed using CellTiter 96 ® Aqueous One Solution Cell Proliferation Assay reagent (Promega) according to the manufacturer's instructions. Values were normalized to the DMSO control.

[1] = Compound solubility and stability (LC-PDA-MS); type: physicochemical
Protocol: This […] […] Data was analyzed using FlowJo Eppendorf tubes. Saturated PBS samples were further software (TreeStar, USA). […] After 24 h, plates were treated with vehicle control, […] and a Quattro Premier (Waters). […] […] diluting stocks (50 mM in DMSO) 1000x in Methanol (standard), PBS, or media. Resulting solutions were clarified by centrifugation and an aliquot of the supernatant was extracted with 2 volumes acetonitrile. VPC-18005 solubility determined as fraction remaining as quantified by LC-PDA-MS versus the methanol solution as standard.

Compound	Percentage of fish with PNT1B-ERG or VCaP dissemination (PNT1B-ERG or VCaP cells)	pIC50 (ERG)	Effect on cell viability (MTS), PC3 (PC3 cells; 0.2–25 μM)	solubility at 1 h ([1]; cell culture media (RPMI + 5% charcoal stripped serum), plasma or biological fluid, kinetic from dmso stock, RPMI + 5% CSS, 50 mM DMSO stock diluted 1,000x)	Media solubility ([1]; media)	Stability in media (fraction remaining) ([1]; media, 3 days, RT)	Impact on cell cycle distribution (VCaP cells)	Doses with inhibition of cell viability (MTS), PC3 (PC3 cells)	Media solubility [1]	Stability in media (fraction remaining) ([1]; 72 h)	G0–G1 phase population (VCaP cells; 5 and 10 μM)
CC(C)c1ccc(C=N/N=C2\NC(=O)[C@@H](CC(=O)O)S2)cc1 (stereo in doubt) [VPC-18005, 2-((Z)-2-(((Z)-4-isopropylbenzylidene)hydrazono)-4-oxothiazolidin-5-yl)acetic acid]	20–30%	5.52	did not decrease viability	> 50 µM	soluble in media	93%	did not impact cell cycle distribution				
COc1ccc(C(=O)CC2(O)C(=O)Nc3c(Cl)ccc(Cl)c32)cc1 (stereo not shown) [YK-4-279, reference compound]	40–60%	5.30						≥ 5 µM	soluble	60%	concomitantly reduced
